From the NIST ThermoML archive (doi:10.1016/j.fluid.2008.06.003)
± gives the expanded uncertainty stated by the source.

Tests used:
[1] = 298.15 K, 101.33 kPa, Liquid
[2] = refractive index (Na D-line) (dimensionless); details: 298.15 K; 101.33 kPa; Liquid; Standard Abbe refractometry

Row | Structure (SMILES) | mass density ([1]; Vibrating tube method) [kg/m3] | refractive index [2] | mass density [1] [kg/m3]
1 | CCCCCCn1cc[n+](C)c1.F[P-](F)(F)(F)(F)F [1-hexyl-3-methylimidazolium hexafluorophosphate] | 1293.7 ± 9.1 | 1.41787 ± 0.001 | 
2 | CCCCCC [hexane] |  | 1.37217 ± 0.00037 | 654.9 ± 1.1
3 | CCCCCCCC[n+]1ccn(C)c1.F[P-](F)(F)(F)(F)F [1-octyl-3-methylimidazolium hexafluorophosphate] | 1235.7 ± 8.3 | 1.42302 ± 0.001 | 
4 | CCCCCCC [heptane] |  | 1.38517 ± 0.00037 | 679.5 ± 1
5 | CCO [ethanol] |  | 1.35929 ± 0.00031 | 785.1 ± 0.5
